Measured values reported in the NIST ThermoML archive (doi:10.1016/j.fluid.2006.12.012).
± gives the expanded uncertainty stated by the source.

Tests used:
[1] = 298.15 K; 101.33 kPa; Liquid; Pycnometric method
[2] = refractive index (Na D-line) (dimensionless); conditions: 298.15 K; 101.33 kPa; Liquid; Standard Abbe refractometry
[3] = xn = mol fraction of the nth substance listed; conditions: 303.15 K, 101 kPa, Liquid, Direct dilatometry
[4] = excess molar enthalpy (molar enthalpy of mixing); xn = mol fraction of the nth substance listed; conditions: 298.15 K, 101 kPa, Liquid

CC(C)CO [2-methyl-1-propanol]
Conditions	mass density [kg/m3]	refractive index
[1]	794.34 ± 0.78	–
[2]	–	1.3939 ± 0.0008

CC(C)CO [2-methyl-1-propanol] + CN1CCCC1=O
Conditions	excess molar enthalpy [kcal/mol]	excess molar volume [m3/mol]
[3], x2 = 0.1356	–	-9.8e-08 ± 6e-09
[3], x2 = 0.2201	–	-1.47e-07 ± 6e-09
[3], x2 = 0.2921	–	-1.74e-07 ± 6e-09
[3], x2 = 0.4102	–	-2.06e-07 ± 6e-09
[3], x2 = 0.5144	–	-2.26e-07 ± 6e-09
[3], x2 = 0.5994	–	-2.32e-07 ± 6e-09
[3], x2 = 0.6915	–	-2.21e-07 ± 6e-09
[3], x2 = 0.8044	–	-1.86e-07 ± 6e-09
[3], x2 = 0.9237	–	-9.6e-08 ± 6e-09
[4], x2 = 0.051	0.0366 ± 0.00186	–
[4], x2 = 0.1288	0.0654 ± 0.00287	–
[4], x2 = 0.2035	0.085 ± 0.00359	–
[4], x2 = 0.2736	0.0939 ± 0.00382	–
[4], x2 = 0.3385	0.0957 ± 0.00382	–
[4], x2 = 0.3939	0.0938 ± 0.00382	–
[4], x2 = 0.4477	0.0902 ± 0.00359	–
[4], x2 = 0.4974	0.0863 ± 0.00359	–
[4], x2 = 0.543	0.0817 ± 0.00335	–
[4], x2 = 0.6198	0.0645 ± 0.00287	–
[4], x2 = 0.6816	0.0585 ± 0.00263	–
[4], x2 = 0.748	0.0524 ± 0.00239	–
[4], x2 = 0.8179	0.0474 ± 0.00222	–
[4], x2 = 0.8911	0.0354 ± 0.00184	–
[4], x2 = 0.9686	0.0224 ± 0.00143	–

CC(C)(C)O [2-methylpropan-2-ol]
Conditions	mass density [kg/m3]	refractive index
[1]	776.16 ± 0.76	–
[2]	–	1.3851 ± 0.0008

CC(C)(C)O [2-methylpropan-2-ol] + CN1CCCC1=O
Conditions	excess molar enthalpy [kcal/mol]	excess molar volume [m3/mol]
[3], x2 = 0.1121	–	-3.2e-08 ± 6e-09
[3], x2 = 0.2423	–	-8.4e-08 ± 6e-09
[3], x2 = 0.3215	–	-1.16e-07 ± 6e-09
[3], x2 = 0.4128	–	-1.36e-07 ± 6e-09
[3], x2 = 0.4601	–	-1.52e-07 ± 6e-09
[3], x2 = 0.5403	–	-1.48e-07 ± 6e-09
[3], x2 = 0.6359	–	-1.42e-07 ± 6e-09
[3], x2 = 0.7246	–	-1.18e-07 ± 6e-09
[3], x2 = 0.8032	–	-9e-08 ± 6e-09
[3], x2 = 0.8404	–	-6.4e-08 ± 6e-09
[3], x2 = 0.9238	–	-2.6e-08 ± 6e-09
[4], x2 = 0.0634	0.0223 ± 0.00143	–
[4], x2 = 0.1313	0.0597 ± 0.00263	–
[4], x2 = 0.2034	0.094 ± 0.00382	–
[4], x2 = 0.2666	0.117 ± 0.00454	–
[4], x2 = 0.3319	0.135 ± 0.00526	–
[4], x2 = 0.3942	0.145 ± 0.0055	–
[4], x2 = 0.4382	0.142 ± 0.0055	–
[4], x2 = 0.4828	0.14 ± 0.0055	–
[4], x2 = 0.5381	0.137 ± 0.00526	–
[4], x2 = 0.6026	0.128 ± 0.00502	–
[4], x2 = 0.6733	0.112 ± 0.00454	–
[4], x2 = 0.7442	0.0971 ± 0.00406	–
[4], x2 = 0.829	0.0662 ± 0.00287	–
[4], x2 = 0.9194	0.0342 ± 0.00179	–

CC(C)CCO [3-methylbutan-1-ol]
Conditions	mass density [kg/m3]	refractive index
[1]	801.76 ± 0.79	–
[2]	–	1.4053 ± 0.0008

CC(C)CCO [3-methylbutan-1-ol] + CN1CCCC1=O
Conditions	excess molar enthalpy [kcal/mol]	excess molar volume [m3/mol]
[3], x2 = 0.0999	–	-7.8e-08 ± 6e-09
[3], x2 = 0.2737	–	-1.69e-07 ± 6e-09
[3], x2 = 0.3718	–	-1.97e-07 ± 6e-09
[3], x2 = 0.4155	–	-2.09e-07 ± 6e-09
[3], x2 = 0.5254	–	-2.01e-07 ± 6e-09
[3], x2 = 0.6399	–	-1.76e-07 ± 6e-09
[3], x2 = 0.7034	–	-1.49e-07 ± 6e-09
[3], x2 = 0.8699	–	-7.3e-08 ± 6e-09
[3], x2 = 0.9384	–	-3.6e-08 ± 6e-09
[4], x2 = 0.0777	0.0394 ± 0.00196	–
[4], x2 = 0.149	0.0727 ± 0.00311	–
[4], x2 = 0.2286	0.101 ± 0.00406	–
[4], x2 = 0.3011	0.112 ± 0.00454	–
[4], x2 = 0.3692	0.12 ± 0.00478	–
[4], x2 = 0.4301	0.119 ± 0.00478	–
[4], x2 = 0.4847	0.116 ± 0.00454	–
[4], x2 = 0.5348	0.113 ± 0.00454	–
[4], x2 = 0.5484	0.114 ± 0.00454	–
[4], x2 = 0.5792	0.108 ± 0.0043	–
[4], x2 = 0.6031	0.103 ± 0.00406	–
[4], x2 = 0.6712	0.0904 ± 0.00359	–
[4], x2 = 0.744	0.0778 ± 0.00335	–
[4], x2 = 0.8153	0.0615 ± 0.00263	–
[4], x2 = 0.8821	0.0416 ± 0.00203	–
[4], x2 = 0.9444	0.0212 ± 0.00139	–

CN1CCCC1=O [N-methylpyrrolidone]
Conditions	mass density [kg/m3]	refractive index
[1]	1023.4 ± 1.1	–
[2]	–	1.4674 ± 0.0008

CN1CCCC1=O [N-methylpyrrolidone] + CC(C)O
Conditions	excess molar enthalpy [kcal/mol]	excess molar volume [m3/mol]
[3], x1 = 0.1498	–	-5.2e-08 ± 6e-09
[3], x1 = 0.2066	–	-7.8e-08 ± 6e-09
[3], x1 = 0.3202	–	-1.29e-07 ± 6e-09
[3], x1 = 0.4317	–	-1.57e-07 ± 6e-09
[3], x1 = 0.5027	–	-1.62e-07 ± 6e-09
[3], x1 = 0.5854	–	-1.66e-07 ± 6e-09
[3], x1 = 0.7216	–	-1.42e-07 ± 6e-09
[3], x1 = 0.8148	–	-1.06e-07 ± 6e-09
[3], x1 = 0.9062	–	-5.8e-08 ± 6e-09
[4], x1 = 0.0516	0.0709 ± 0.00311	–
[4], x1 = 0.1082	0.137 ± 0.00526	–
[4], x1 = 0.1702	0.19 ± 0.00717	–
[4], x1 = 0.2279	0.223 ± 0.00837	–
[4], x1 = 0.2894	0.24 ± 0.00884	–
[4], x1 = 0.3471	0.248 ± 0.00908	–
[4], x1 = 0.4059	0.246 ± 0.00908	–
[4], x1 = 0.4562	0.238 ± 0.00884	–
[4], x1 = 0.595	0.174 ± 0.00669	–
[4], x1 = 0.6888	0.147 ± 0.00574	–
[4], x1 = 0.7874	0.113 ± 0.00454	–
[4], x1 = 0.892	0.0648 ± 0.00287	–

CN1CCCC1=O [N-methylpyrrolidone] + CCC(C)O
Conditions	excess molar enthalpy [kcal/mol]	excess molar volume [m3/mol]
[3], x1 = 0.1046	–	-6.5e-08 ± 6e-09
[3], x1 = 0.1831	–	-1.26e-07 ± 6e-09
[3], x1 = 0.249	–	-1.62e-07 ± 6e-09
[3], x1 = 0.3096	–	-1.93e-07 ± 6e-09
[3], x1 = 0.3777	–	-2.19e-07 ± 6e-09
[3], x1 = 0.4817	–	-2.38e-07 ± 6e-09
[3], x1 = 0.5739	–	-2.3e-07 ± 6e-09
[3], x1 = 0.6355	–	-2.16e-07 ± 6e-09
[3], x1 = 0.7494	–	-1.64e-07 ± 6e-09
[3], x1 = 0.8086	–	-1.36e-07 ± 6e-09
[3], x1 = 0.9142	–	-6.4e-08 ± 6e-09
[4], x1 = 0.0691	0.0413 ± 0.00201	–
[4], x1 = 0.1595	0.0937 ± 0.00382	–
[4], x1 = 0.2388	0.123 ± 0.00478	–
[4], x1 = 0.3106	0.134 ± 0.00526	–
[4], x1 = 0.3733	0.14 ± 0.0055	–
[4], x1 = 0.4822	0.136 ± 0.00526	–
[4], x1 = 0.5305	0.131 ± 0.00502	–
[4], x1 = 0.5614	0.124 ± 0.00478	–
[4], x1 = 0.6341	0.109 ± 0.0043	–
[4], x1 = 0.7217	0.0872 ± 0.00359	–
[4], x1 = 0.8176	0.0598 ± 0.00263	–
[4], x1 = 0.9067	0.0327 ± 0.00174	–

CCC(C)O (stereo not given) [butan-2-ol]
Conditions	mass density [kg/m3]	refractive index
[1]	798.92 ± 0.79	–
[2]	–	1.3954 ± 0.0008

CC(C)O [propan-2-ol]
Conditions	mass density [kg/m3]	refractive index
[1]	776.88 ± 0.76	–
[2]	–	1.375 ± 0.0008
